Measured values as given in patent US6410593B1, “Antidandruff compositions” (priority 1998, dated 2002).
Like-named read-outs stand apart in the source and are kept apart here.

Experiments:
[1] = background statement; cited from earlier work
[2] = test system: Pityrosporum ovalae; test: minimum inhibitory doses (M.I.C.) for Pityrosporum ovalae; type: cell-based
From the text: (§1) Undecylenamidopropylbetaine (Amphoram®U from CECA S.A.) was compared with piroctone olamine (CFTA) or 1-hydroxy-4-methyl-6-(2,4,4-trimethylpentyl)-2(1H)pyridone; ethanol (1:1) salt (RN=68890-66-4), taken in its commercial form as Octopyrox® (Hoechst), at the minimum inhibitory doses (M.I.C.) for Pityrosporum ovalae, i.e., respectively, 2% and 0.2% beforehand.

[3] = test system: dandruff; test: antidandruff efficacy test over 15 days on a Test Panel of 20 individuals; type: in vivo; conditions: for Area occupied by dandruff, percentage of variations on D15 relative to D1 / Dandruff removal index, percentage of variations on D15 relative to D1: products at their M.I.C. (2% and 0.2%)
From the text: as §1

[4] = in vivo
[5] = sebumetry index measured with the Courage-Khazka sebumeter, Test Panel of 20 individuals; conditions: 15 days

Compound | solubility in water [1] | minimum inhibitory doses (M.I.C.) for Pityrosporum ovalae [2] [%] | state of dandruff (decrease in the area occupied and increase in the dandruff removal index) [3] | Area occupied by dandruff, percentage of variations on D15 relative to D1 [3] [%] | Dandruff removal index, percentage of variations on D15 relative to D1 [3] [%] | Sebumetry index, percentage of variation on D15 relative to D1 [4] [%] | Sebumetry index, percentage of variation on D15 relative to D1 [5] [%]
zinc pyrithione | water-insoluble |  |  |  |  |  | 
CC(C)(C)C(=O)C(Oc1ccc(Cl)cc1)n1ccnc1 (stereo not drawn) [climbazole] | water-insoluble |  |  |  |  |  | 
N-(carboxymethyl)-N,N-dimethyl-3-[(1-oxoundecenyl)amino]-1-propanaminium hydroxide [Amphoram U] |  | 2 | 30 to 40% | −29 | −36 | −7 | 
CCO.Cc1cc(CC(C)CC(C)(C)C)n(O)c(=O)c1 (stereo not drawn) [Octopyrox, 1-hydroxy-4-methyl-6-(2,4,4-trimethylpentyl)-2(1H)pyridone; ethanol (1:1) salt] |  | 0.2 | remained stable | −7 | −5 |  | −4
